According to patent publication US20180228795A1, “COMBINATION THERAPY FOR CANCER” (Eli Lilly and Company, priority 2015, published 2018):

Experiments:
Test in all cases: Antitumor effects in PDX mouse model of TNBC
Type in all cases: in vivo
PDX TNBC Model CTG-0012 = settings: PDX model CTG-0012; A 10 mg/kg SC BID 3 days on/4 off ×4; B 7.5 mg/kg PO BID×28; versus vehicle
Description: (§1) Establish PDX tumor models from viable human tumor tissue and serially passage in immunocompromised female mice a limited number of times. Using tumor fragments harvested from donor host animals, perform unilateral subcutaneous implants from a specific passage of the PDX tumor model on the flanks of the experimental animals. When tumor volumes reach approximately 150-250 mm^3 in size, randomize the animals by treatment arm by randomization techniques well known in the art and place into their respective treatment groups using 1 animal per treatment group (3 animals in an untreated group). Formulate CHK1 inhibitor, 5-(5-(2-(3-aminopropoxy)-6-methoxyphenyl)-1H-pyrazol-3-ylamino)pyrazine-2-carbonitrile methanesulfonate hydrate, (Compound A) every 14 days in 20% captisol (dissolved in water) and administer subcutaneously twice daily at a dose of 10 mg/kg on days 1/2/3 of a weekly cycle for 4 weeks (SC, BID [3 days on/4 off]×4). Formulate the PI3K/mTOR dual inhibitor, 8-[5-(1-hydroxy-1-methylethyl)pyridin-3-yl]-1-[(2S)-2-methoxypropyl]-3-methyl-1,3-dihydro-2H-imidazo[4,5-c]quinolin-2-one, (Compound B) weekly in 1% (HEC)/0.25% Tween 80 (Polysorbate 80)/0.05% Dow-Corning Antifoam 1510-US and administer by oral gavage twice-daily for 28 days (PO, BID×28) at a dose of 7.5 mg/kg. Dose combination treatment animals with both compounds according to the schedule described above for monotherapy, and dose vehicle treatment animals with vehicle according to the schedule for Compound B.
(§2) Test the combination of Compound A and Compound B, as well as their respective monotherapies, in 40 PDX models (Table 1) of TNBC. Assess antitumor efficacy of the treatment groups by measuring tumor volume via caliper measurements twice a week during the course of the study. Measure body weight twice weekly during the course of the study as a general indicator of tolerability.
(§3) Capture tumor size and body weight twice per week. Estimate tumor volume (V) by using the formula: V=(π/6)×L×W^2 where L=larger of measured diameter and W=smaller perpendicular diameter. Calculate relative tumor volume using the tumor volume measurement taken nearest to the last day of dosing for each animal (T), divided by the baseline tumor volume for that animal (T0), which is the volume recorded on or just prior to the first day of dosing, Y=T/T0. Calculate % ΔT/ΔC values using the formula % ΔT/ΔC=100(YT−1)/(YC−1), whereby YT or YC=geometric mean relative volume of the compound treated group or the control group, respectively. Tumor growth inhibition is observed in those instances where the calculated values for % ΔT/ΔC are less than 100% whereby greater inhibition results in smaller % ΔT/ΔC values. If ΔT<0, then a tumor regression value is calculated instead of % ΔT/ΔC whereby % Regression=100(YT−1). Note that negative values indicate regression. We collectively refer to % ΔT/ΔC and % Regression as % Response.
(§4) Examine relative tumor volume (final volume divided by baseline volume) on the last day of treatment or the last day on which data from all three treatment groups and vehicle is available, if it is earlier than the last day of treatment and at least 14 days after baseline. Expected additive relative volume is determined using the Bliss method (Bliss, C. I., Ann Appl Biol, 1939; 26(3):585-615). Specifically, denoting Y=relative volume, YExp=(Y1*Y2)/YV, where YExp=expected additive relative volume, Y1 and Y2 are the relative volumes in the single agent groups (Compound A and Compound B), and YV is the relative volume in the vehicle group. A range of additivity is defined around the expected additive relative volume via upper and lower limits as follows:
(§5) Yupper=max(2*YExp,YExp+0.2)
(§6) Ylower=min(YExp/2,YExp−0.2)
(§7) The upper limit of the range is the larger of 2-fold above or 20% above the expected additive relative volume, and the lower limit is the smaller of 2-fold below or 20% below the expected additive relative volume. […]

PDX TNBC Model MAXF 583 = settings: PDX model MAXF 583; A 10 mg/kg SC BID 3 days on/4 off ×4; B 7.5 mg/kg PO BID×28; versus vehicle
Description: as §1, §2, §3, §4, §5, §6, §7

PDX TNBC Model ST821 = settings: A 10 mg/kg SC BID 3 days on/4 off ×4, B 7.5 mg/kg PO BID×28, versus vehicle
Description: as §1, §2, §3, §4, §5, §6, §7

PDX TNBC Model CTG-0888 = settings: PDX model CTG-0888; A 10 mg/kg SC BID 3 days on/4 off ×4; B 7.5 mg/kg PO BID×28; versus vehicle
Description: as §1, §2, §3, §4, §5, §6, §7

PDX TNBC Model CTG-1019 = settings: PDX model CTG-1019; A 10 mg/kg SC BID 3 days on/4 off ×4; B 7.5 mg/kg PO BID×28; versus vehicle
Description: as §1, §2, §3, §4, §5, §6, §7

PDX TNBC Model ST231 = settings: A 10 mg/kg SC BID 3 days on/4 off ×4, B 7.5 mg/kg PO BID×28, versus vehicle
Description: as §1, §2, §3, §4, §5, §6, §7

PDX TNBC Model CTG-0670 = settings: PDX model CTG-0670; A 10 mg/kg SC BID 3 days on/4 off ×4; B 7.5 mg/kg PO BID×28; versus vehicle
Description: as §1, §2, §3, §4, §5, §6, §7

PDX TNBC Model CTG-1408 = settings: PDX model CTG-1408; A 10 mg/kg SC BID 3 days on/4 off ×4; B 7.5 mg/kg PO BID×28; versus vehicle
Description: as §1, §2, §3, §4, §5, §6, §7

PDX TNBC Model MAXF 508 = settings: PDX model MAXF 508; A 10 mg/kg SC BID 3 days on/4 off ×4; B 7.5 mg/kg PO BID×28; versus vehicle
Description: as §1, §2, §3, §4, §5, §6, §7

PDX TNBC Model ST996 = settings: A 10 mg/kg SC BID 3 days on/4 off ×4, B 7.5 mg/kg PO BID×28, versus vehicle
Description: as §1, §2, §3, §4, §5, §6, §7

PDX TNBC Model CTG-0437 = settings: PDX model CTG-0437; A 10 mg/kg SC BID 3 days on/4 off ×4; B 7.5 mg/kg PO BID×28; versus vehicle
Description: as §1, §2, §3, §4, §5, §6, §7

PDX TNBC Model MAXF MX1 = settings: A 10 mg/kg SC BID 3 days on/4 off ×4, B 7.5 mg/kg PO BID×28, versus vehicle
Description: as §1, §2, §3, §4, §5, §6, §7

PDX TNBC Model CTG-0017 = settings: PDX model CTG-0017; A 10 mg/kg SC BID 3 days on/4 off ×4; B 7.5 mg/kg PO BID×28; versus vehicle
Description: as §1, §2, §3, §4, §5, §6, §7

| SMILES | % Rsp. (% ΔT/ΔC or % Regression) (PDX TNBC Model CTG-0012) | % Rsp. (% ΔT/ΔC or % Regression) (PDX TNBC Model MAXF 583) | % Rsp. (% ΔT/ΔC or % Regression) (PDX TNBC Model ST821) | % Rsp. (% ΔT/ΔC or % Regression) (PDX TNBC Model CTG-0888) | % Rsp. (% ΔT/ΔC or % Regression) (PDX TNBC Model CTG-1019) | % Rsp. (% ΔT/ΔC or % Regression) (PDX TNBC Model ST231) | % Rsp. (% ΔT/ΔC or % Regression) (PDX TNBC Model CTG-0670) | % Rsp. (% ΔT/ΔC or % Regression) (PDX TNBC Model CTG-1408) | % Rsp. (% ΔT/ΔC or % Regression) (PDX TNBC Model MAXF 508) | % Rsp. (% ΔT/ΔC or % Regression) (PDX TNBC Model ST996) | % Rsp. (% ΔT/ΔC or % Regression) (PDX TNBC Model CTG-0437) | % Rsp. (% ΔT/ΔC or % Regression) (PDX TNBC Model MAXF MX1) | % Rsp. (% ΔT/ΔC or % Regression) (PDX TNBC Model CTG-0017) |
| --- | --- | --- | --- | --- | --- | --- | --- | --- | --- | --- | --- | --- | --- |
| COc1cccc(OCCCN)c1-c1cc(Nc2cnc(C#N)cn2)n[nH]1.CS(=O)(=O)O [Compound A, 5-(5-(2-(3-aminopropoxy)-6-methoxyphenyl)-1H-pyrazol-3-ylamino)pyrazine-2-carbonitrile methanesulfonate hydrate] | 33.4% | 9.6% | −81.9% | 15.0% | 86.6% | −74.6% | 112.8% | 11.1% | −100.0% | 0.7% | −87.5% | 126.1% | 52.3% |
| CO[C@@H](C)Cn1c(=O)n(C)c2cnc3ccc(-c4cncc(C(C)(C)O)c4)cc3c21 [Compound B, 8-[5-(1-hydroxy-1-methylethyl)pyridin-3-yl]-1-[(2S)-2-methoxypropyl]-3-methyl-1,3-dihydro-2H-imidazo[4,5-c]quinolin-2-one] | 49.0% | 121.1% | 78.5% | 21.2% | 158.0% | 76.8% | 117.6% | 27.5% | 41.3% | 23.5% | 80.3% | 163.0% | 28.1% |
